We go through 13 compounds from patent US8901313B2, “6,5-heterocyclic propargylic alcohol compounds and uses therefor” (Genentech, Inc., priority 2011, dated 2014).

This assay deals with T1, nuclear factor-kappa B (NF-kB)-inducing kinase (NIK) (Homo sapiens, UniProt Q99558).
T1 construct: made in house; host or cells: baculovirus-infected insect cells
T1 sequence (Q99558 whole entry): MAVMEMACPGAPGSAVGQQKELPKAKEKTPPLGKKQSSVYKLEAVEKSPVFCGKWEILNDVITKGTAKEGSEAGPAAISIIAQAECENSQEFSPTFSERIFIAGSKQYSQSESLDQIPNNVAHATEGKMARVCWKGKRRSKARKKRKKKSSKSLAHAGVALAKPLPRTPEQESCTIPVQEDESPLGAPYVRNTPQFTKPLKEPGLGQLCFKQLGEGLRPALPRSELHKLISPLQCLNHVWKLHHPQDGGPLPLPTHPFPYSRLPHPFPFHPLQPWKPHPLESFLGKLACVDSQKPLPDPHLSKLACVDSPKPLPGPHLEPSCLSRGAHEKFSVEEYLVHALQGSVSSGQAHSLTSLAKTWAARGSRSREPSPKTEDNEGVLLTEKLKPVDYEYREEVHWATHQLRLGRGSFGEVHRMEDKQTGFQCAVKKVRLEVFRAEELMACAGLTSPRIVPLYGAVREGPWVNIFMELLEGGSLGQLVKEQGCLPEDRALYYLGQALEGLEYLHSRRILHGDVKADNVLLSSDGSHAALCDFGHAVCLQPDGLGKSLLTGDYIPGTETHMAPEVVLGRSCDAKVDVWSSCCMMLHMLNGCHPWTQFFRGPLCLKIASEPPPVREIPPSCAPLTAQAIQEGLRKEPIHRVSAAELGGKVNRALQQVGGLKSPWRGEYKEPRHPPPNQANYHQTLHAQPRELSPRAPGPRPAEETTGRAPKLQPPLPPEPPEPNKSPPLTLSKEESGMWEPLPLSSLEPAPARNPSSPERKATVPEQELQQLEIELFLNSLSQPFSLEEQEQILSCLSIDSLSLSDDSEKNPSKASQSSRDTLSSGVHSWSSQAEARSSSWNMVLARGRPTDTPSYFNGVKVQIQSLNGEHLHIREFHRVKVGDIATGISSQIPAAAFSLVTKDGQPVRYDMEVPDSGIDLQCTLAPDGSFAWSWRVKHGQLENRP
Kind of assay: NIK Enzyme Inhibition Assay (Transcreener ADP assay). It is filed as biochemical. The following applies: purified NIK 0.2-1 nM, 10 uM ATP, fluorescence polarization, Morrison's quadratic equation; read-out: inhibitory value (Ki) for NIK.
As for `Cc1nn(-c2ccnc(N)n2)c2cc(C#CC3(O)CCCN(C)C3=O)ccc12` (stereo not shown) [Example T1.1-136, 3-[2-[1-(2-aminopyrimidin-4-yl)-3-methyl-indazol-6-yl]ethynyl]-3-hydroxy-1-methyl-piperidin-2-one], the Ki was 2 nM.
Regarding `CC(C)(O)c1nn(-c2ccnc(N)n2)c2cc(C#CC(C)(O)c3ncccn3)ccc12` (stereo not shown) [Example T1.1-57, 4-[1-(2-aminopyrimidin-4-yl)-3-(1-hydroxy-1-methyl-ethyl)indazol-6-yl]-2-pyrimidin-2-yl-but-3-yn-2-ol], the inhibition constant (Ki) turned out to be 5 nM.
On to `Cc1nc([C@](C)(O)C#Cc2ccc3c(C(=O)N4CCC(F)CC4)nn(-c4nc(N)ncc4Cl)c3c2)no1` [Example T1.1-68, [1-(2-amino-5-chloro-pyrimidin-4-yl)-6-[(3R)-3-hydroxy-3-(5-methyl-1,2,4-oxadiazol-3-yl)but-1-ynyl]indazol-3-yl]-(4-fluoro-1-piperidyl)methanone], for which the inhibitory constant (Ki) was 9 nM.
The result for `Cc1nc([C@](C)(O)C#Cc2ccc3c(C(=O)N4CCCCC4)nn(-c4nc(N)ncc4Cl)c3c2)no1` [Example T1.1-71, [1-(2-amino-5-chloro-pyrimidin-4-yl)-6-[(3R)-3-hydroxy-3-(5-methyl-1,2,4-oxadiazol-3-yl)but-1-ynyl]indazol-3-yl]-(1-piperidyl)methanone] reads 10 nM; that for `CC(O)(C#Cc1ccc2c(CN3CC(F)(F)C3)nn(-c3ccnc(N)n3)c2c1)c1ncccn1` (stereo not shown) [Example T1.1-43, 4-[1-(2-aminopyrimidin-4-yl)-3-[(3,3-difluoroazetidin-1-yl)methyl]indazol-6-yl]-2-pyrimidin-2-yl-but-3-yn-2-ol], 3 nM; that for `Cc1nn(-c2ccnc(N)n2)c2cc(C#CC(C)(O)c3ncc[nH]3)ccc12` (stereo not shown) [Example T1.1-98, 4-[1-(2-aminopyrimidin-4-yl)-3-methyl-indazol-6-yl]-2-(1H-imidazol-2-yl)but-3-yn-2-ol], 111 nM.
The result for `COc1ncccc1Nc1cc(-n2ncc3ccc(C#CC(C)(C)O)cc32)ncn1` [Example T1-31, 4-(1-(6-(2-methoxypyridin-3-ylamino)pyrimidin-4-yl)-1H-indazol-6-yl)-2-methylbut-3-yn-2-ol] reads 4600 nM; that for `Cn1ccc(C(C)(O)C#Cc2ccc3c(C(C)(C)O)nn(-c4ccnc(N)n4)c3c2)n1` (stereo not shown) [Example T1.1-95, 4-[1-(2-aminopyrimidin-4-yl)-3-(1-hydroxy-1-methyl-ethyl)indazol-6-yl]-2-(1-methylpyrazol-3-yl)but-3-yn-2-ol], 87 nM; that for `Cc1nc([C@](C)(O)C#Cc2ccc3c(C(=O)N4CCC(F)CC4)nn(-c4ccnc(N)n4)c3c2)no1` [Example T1.1-24, [1-(2-aminopyrimidin-4-yl)-6-[(3R)-3-hydroxy-3-(5-methyl-1,2,4-oxadiazol-3-yl)but-1-ynyl]indazol-3-yl]-(4-fluoro-1-piperidyl)methanone], 1 nM.
As for `Cc1nc2ccc(C#CC3(O)CC(CO)C3)cc2n1-c1ncnc(N)n1` (stereo not shown) [Example T1.1-115, 1-[2-[3-(4-amino-1,3,5-triazin-2-yl)-2-methyl-benzimidazol-5-yl]ethynyl]-3-(hydroxymethyl)cyclobutanol], the Ki was found to be 3900 nM.
Take `CC(O)(C#Cc1ccc2c(C(=O)N3CC4(COC4)C3)nn(-c3ccnc(N)n3)c2c1)c1ncccn1` (stereo not shown) [Example T1.1-63, [1-(2-aminopyrimidin-4-yl)-6-(3-hydroxy-3-pyrimidin-2-yl-but-1-ynyl)indazol-3-yl]-(2-oxa-6-azaspiro[3.3]heptan-6-yl)methanone]: the Ki came to 6 nM.
The result for `CC(O)(C#Cc1ccc2c(C(=O)N3CCOCC3)nn(-c3ccnc(N)n3)c2c1)CF` (stereo not shown) [Example T1.1-75, [1-(2-aminopyrimidin-4-yl)-6-(4-fluoro-3-hydroxy-3-methyl-but-1-ynyl)indazol-3-yl]-morpholino-methanone] reads 14 nM; that for `CCOc1nc2ccc(C#CC(C)(O)c3ncccn3)cc2n1-c1ccnc(N)n1` (stereo not shown) [Example T1.1-48, 4-[3-(2-aminopyrimidin-4-yl)-2-ethoxy-benzimidazol-5-yl]-2-pyrimidin-2-yl-but-3-yn-2-ol], 3 nM.
